Results published in article PMC7294232, “Synthesis and biological evaluation of novel quinoline-piperidine scaffolds as antiplasmodium agents” (European Journal of Medicinal Chemistry, 2020).
Read-outs that look alike come from different tables or passages of the source.

Tests used:
[1] = test system: Chinese hamster ovarian (CHO) cells; assay: in vitro cytotoxicity, MTT-assay; format: cell-based; conditions: for IC50: Cricetulus griseus, CHO; for SI (selectivity index): IC50 CHO/IC50 NF54
Procedure: An antiplasmodium assay was performed on this set of 18 novel quinoline-piperidine analogues to establish their potential as antimalarial agents. […] All compounds were screened for in vitro antiplasmodium activity against a CQ-sensitive strain of P. falciparum (NF54). Subsequently, compounds showing promising antiplasmodium activity were also tested against a CQ-resistant strain of P. falciparum (K1) and analysed for in vitro cytotoxicity against a mammalian cell line, Chinese hamster ovarian (CHO) cells, using the 3-(4,5-dimethylthiazol-2-yl)-2,5-diphenyltetrazoliumbromide (MTT)-assay. Continuous in vitro cultures of asexual erythrocyte stages of P. falciparum were maintained using a modified method of Trager and Jensen, and quantitative assessment of antiplasmodium activity in vitro was determined via the parasite lactate dehydrogenase assay using a modified method described by Makler. The test samples were tested in triplicate on one occasion. The MTT-assay was used as a colorimetric assay for cellular growth and survival, and compares well with other available assays. The tetrazolium salt MTT was used to measure all growth and chemosensitivity. Again, samples were tested in triplicate on one occasion. Chloroquine was used as reference compound in both antiplasmodium screenings, while emetine was used as known antiprotozoal agent in the MTT-assay.
The same stock solutions prepared for antiplasmodium testing were used for cytotoxicity testing. Test compounds were stored at −20 °C until use. Dilutions were prepared on the day of the experiment. Emetine was used as the reference drug in all experiments. The initial concentration of emetine was 100 μg/ml, which was serially diluted in complete medium with 10-fold dilutions to give 6 concentrations, the lowest being 0.001 μg/ml. The same dilution technique was applied to all the test samples. The highest concentration of solvent to which the cells were exposed to had no measurable effect on the cell viability (data not shown). The 50% inhibitory concentration (IC50) values were obtained from full dose-response curves, using a non-linear dose-response curve fitting analysis via GraphPad Prism v.4 software.

[2] = test system: CQ-sensitive strain of P. falciparum (NF54); assay: in vitro antiplasmodium assay (parasite lactate dehydrogenase), CQ-sensitive strain; format: cell-based, Plasmodium falciparum; conditions: for IC50: Plasmodium falciparum
[3] = test system: CQ-resistant strain of P. falciparum (K1); assay: in vitro antiplasmodium assay (parasite lactate dehydrogenase), CQ-resistant strain; format: cell-based, Plasmodium falciparum; conditions: for IC50: Plasmodium falciparum; for activity lowered by omitting the 7-chlorine atom: CQ-resistant strain, versus 7-chloro analogues
[4] = cytotoxicity, CHO cells, MTT, mean ± SD
[5] = CQ-sensitive P. falciparum NF54, mean ± SD, read-out: NF54 IC50
[6] = CQ-resistant P. falciparum K1, mean ± SD, read-out: K1 IC50

SMILES	IC50 [1, 4]	SI (selectivity index) [1]	IC50 [2, 5]	IC50 [3, 6]	further results
Clc1ccc2c(NCC3CC4(c5ccccc5)CCN3C4)ccnc2c1 (centres unmarked) [Compound 11a, 7-Chloro-N-[(4-phenyl-1-azabicyclo[2.2.1]heptan-2-yl)methyl]quinolin-4-amine]	26000 ± 2900 nM	1266	21 ± 5 nM	33 ± 6.2 nM	
CCN(CC)CCCC(C)Nc1ccnc2cc(Cl)ccc12 (centres unmarked) [Chloroquine, reference compound]					IC50 ([2]; NF54, read-out: IC50 (NF54), footnote reference value, subset c): 11.3 nM; IC50 ([2]; NF54, read-out: IC50 (NF54), footnote reference value, subset d): 9.5 nM; IC50 ([2]; NF54, read-out: IC50 (NF54), footnote reference value, subset e): 20 nM; IC50 ([2]; NF54, read-out: NF54 IC50, reference value for compound subset c): 11 ± 1 nM; IC50 ([2]; NF54, read-out: NF54 IC50, reference value for compound subset d): 10 nM; IC50 ([2]; NF54, read-out: NF54 IC50, reference value for compound subset e): 20 nM; IC50 ([3]; K1, read-out: IC50 (K1)): 166 nM
C=CCN1CCC(CNCc2ccnc3ccccc23)C(C)(C)C1 (centres unmarked) [Compound 17b, N-[(1-Allyl-3,3-dimethylpiperidin-4-yl)methyl]-1-(quinolin-4-yl)methanamine]			4940 ± 1180 nM		
C=CCN1C[C@@H](OCc2ccccc2)[C@@H](CNCc2ccc3ccccc3n2)C(C)(C)C1 (relative stereo) [Compound 17c, N-[(cis-1-Allyl-5-benzyloxy-3,3-dimethylpiperidin-4-yl)methyl]-1-(quinolin-2-yl)methanamine]	211000 ± 31400 nM	134	1570 ± 170 nM	2820 ± 140 nM	
C=CCN1C[C@@H](OCc2ccccc2)[C@@H](CNCc2cc3ccccc3nc2Cl)C(C)(C)C1 (relative stereo) [Compound 17f, N-[(cis-1-Allyl-5-benzyloxy-3,3-dimethylpiperidin-4-yl)methyl]-1-(2-chloroquinolin-3-yl)methanamine]	199000 ± 23300 nM	156	1280 ± 330 nM	1950 ± 78 nM	
C=CCN1C[C@@H](OC)[C@@H](CNCc2ccnc3ccccc23)C(C)(C)C1 (relative stereo) [Compound 17h, N-[(cis-1-Allyl-5-methoxy-3,3-dimethylpiperidin-4-yl)methyl]-1-(quinolin-4-yl)methanamine]			18000 ± 2440 nM		
CC[C@H]1CN2CCc3cc(OC)c(OC)cc3[C@@H]2C[C@@H]1C[C@H]1NCCc2cc(OC)c(OC)cc21 [Emetine, reference compound]					IC50 ([1]; reference value for compound subset c): 40 ± 10 nM; IC50 ([1]; reference value for compound subset d): 140 nM; IC50 ([1]; reference value for compound subset e): 30 nM
C=CCN1C[C@@H](OCc2ccccc2)[C@@H](CNCc2ccnc3ccccc23)C(C)(C)C1 (relative stereo) [Compound 17a, N-[(cis-1-Allyl-5-benzyloxy-3,3-dimethylpiperidin-4-yl)methyl]-1-(quinolin-4-yl)methanamine]	139000 ± 14100 nM	59	2370 ± 1050 nM	3660 ± 430 nM	
Clc1nc2ccccc2cc1CNCC1CC2(c3ccccc3)CCN1C2 (centres unmarked) [Compound 12e, N-[(4-Phenyl-1-azabicyclo[2.2.1]heptan-2-yl)methyl]-1-(2-chloroquinolin-3-yl)methanamine]			3600 ± 310 nM		
C=CCN1C[C@@H](OCc2ccccc2)[C@@H](CNc2ccnc3cc(Cl)ccc23)C(C)(C)C1 (relative stereo) [Compound 16a, N-[(cis-1-Allyl-5-benzyloxy-3,3-dimethylpiperidin-4-yl)methyl]-7-chloroquinolin-4-amine]	122000 ± 41400 nM	10,149	12 ± 1 nM	26 ± 5.7 nM	
C=CCN1CCC(CNCc2cc3ccccc3nc2Cl)C(C)(C)C1 (centres unmarked) [Compound 17g, N-[(1-Allyl-3,3-dimethylpiperidin-4-yl)methyl]-1-(2-chloroquinolin-3-yl)methanamine]			7750 ± 1440 nM		
C=CCN1CCC(CNCc2ccc3cccc(O)c3n2)C(C)(C)C1 (centres unmarked) [Compound 17e, 2-{N-[(1-Allyl-3,3-dimethylpiperidin-4-yl)methyl]aminomethyl}quinolin-8-ol]			2890 ± 1060 nM		
c1ccc(C23CCN(C2)C(CNCc2cnc4ccccc4c2)C3)cc1 (centres unmarked) [Compound 12b, N-[(4-Phenyl-1-azabicyclo[2.2.1]heptan-2-yl)methyl]-1-(quinolin-3-yl)methanamine]			4070 ± 740 nM		
C=CCN1CCC(CNc2ccnc3cc(Cl)ccc23)C(C)(C)C1 (centres unmarked) [Compound 16b, N-[(1-Allyl-3,3-dimethylpiperidin-4-yl)methyl]-7-chloroquinolin-4-amine]	29900 ± 1200 nM	1991	15 ± 1.7 nM	25 ± 8.9 nM	
c1ccc(C23CCN(C2)C(CNCc2ccnc4ccccc24)C3)cc1 (centres unmarked) [Compound 12a, N-[(4-Phenyl-1-azabicyclo[2.2.1]heptan-2-yl)methyl]-1-(quinolin-4-yl)methanamine]			6770 ± 250 nM		
c1ccc(C23CCN(C2)C(CNc2ccnc4ccccc24)C3)cc1 (centres unmarked) [Compound 11b, N-[(4-Phenyl-1-azabicyclo[2.2.1]heptan-2-yl)methyl]quinolin-4-amine]	11200 ± 2100 nM	250	45 ± 7 nM	69 ± 11.3 nM	activity lowered by omitting the 7-chlorine atom [3]: 2 to 3 times
C=CCN1CCC(CNCc2ccc3ccccc3n2)C(C)(C)C1 (centres unmarked) [Compound 17d, N-[(1-Allyl-3,3-dimethylpiperidin-4-yl)methyl]-1-(quinolin-2-yl)methanamine]			3660 ± 820 nM		
C=CCN1CCC(CNc2ccnc3ccccc23)C(C)(C)C1 (centres unmarked) [Compound 16c, N-[(1-Allyl-3,3-dimethylpiperidin-4-yl)methyl]quinolin-4-amine]	27000 ± 3200 nM	114	236 ± 32 nM	68.5 ± 7.8 nM	activity lowered by omitting the 7-chlorine atom [3]: 2 to 3 times
COc1ccc(CNCC2CC3(c4ccccc4)CCN2C3)cc1 (centres unmarked) [Compound 7, 2-[N-(4-methoxybenzyl)aminomethyl]-4-phenyl-1-azabicyclo[2.2.1]heptane]			1550 ± 130 nM		antiplasmodium activity (in words) ([2]; in vitro, strain not given): moderate antiplasmodium activity
c1ccc(C23CCN(C2)C(CNCc2ccc4ccccc4n2)C3)cc1 (centres unmarked) [Compound 12c, N-[(4-Phenyl-1-azabicyclo[2.2.1]heptan-2-yl)methyl]-1-(quinolin-2-yl)methanamine]			1270 ± 40 nM		
Oc1cccc2ccc(CNCC3CC4(c5ccccc5)CCN3C4)nc12 (centres unmarked) [Compound 12d, 2-{N-[(4-Phenyl-1-azabicyclo[2.2.1]heptan-2-yl)methyl]aminomethyl}quinolin-8-ol]	103000 ± 19700 nM	142	720 ± 30 nM	4640 ± 130 nM	
